Biological target: T1, human PTH1 receptor (Homo sapiens, UniProt Q03431)
T1 sequence (Q03431 27-593): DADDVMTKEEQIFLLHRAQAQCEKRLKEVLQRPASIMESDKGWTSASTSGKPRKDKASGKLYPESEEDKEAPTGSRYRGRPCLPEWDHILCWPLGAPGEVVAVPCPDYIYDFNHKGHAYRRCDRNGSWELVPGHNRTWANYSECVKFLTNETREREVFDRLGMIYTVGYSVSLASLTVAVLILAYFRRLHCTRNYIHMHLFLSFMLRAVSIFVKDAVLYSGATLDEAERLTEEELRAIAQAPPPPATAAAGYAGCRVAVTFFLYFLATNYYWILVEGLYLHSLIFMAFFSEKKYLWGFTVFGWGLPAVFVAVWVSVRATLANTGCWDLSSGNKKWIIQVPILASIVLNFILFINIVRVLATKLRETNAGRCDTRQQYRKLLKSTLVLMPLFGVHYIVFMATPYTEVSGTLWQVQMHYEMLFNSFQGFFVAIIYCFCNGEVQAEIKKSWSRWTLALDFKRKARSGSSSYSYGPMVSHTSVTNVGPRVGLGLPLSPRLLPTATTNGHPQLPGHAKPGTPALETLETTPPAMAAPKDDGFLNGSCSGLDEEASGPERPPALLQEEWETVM
Assay: In vitro cAMP signal activity in HKRK-B7 cells (LLC-PK1 cells overexpressing the human PTH1 receptor)
Assay type: cell-based
Conditions: HKRK-B7 cells; compound at 1×10^−3 M; cAMP produced as percentage of that produced by hPTH(1-34) at 100 nM

| SMILES | cAMP production activity (%) |
| --- | --- |
| [2H]C([2H])([2H])C([2H])([2H])C([2H])([2H])C([2H])([2H])Oc1cc(C2=NC3(CCN(S(=O)(=O)/C=C/c4c(C)cc(C(=O)N5CCC(C)(O)CC5)cc4C)CC3)C(=O)N2)cc(C(F)(F)F)c1 [Compound 1233, 2-(3-[1,1,2,2,3,3,4,4,4-^2H9]butoxy-5-trifluoromethyl-phenyl)-8-{(E)-2-[4-(4-hydroxy-4-methyl-piperidine-1-carbonyl)-2,6-dimethyl-phenyl]-ethenesulfonyl}-1,3,8-triaza-spiro[4.5]dec-1-en-4-one] | 78% |
| Cc1cc(C(=O)N2CCC(C)(O)CC2)cc(C)c1CCS(=O)(=O)N1CCC2(CC1)N=C(c1ccc(OC(F)(F)F)cc1)NC2=O [Compound 1234, 8-{2-[4-(4-hydroxy-4-methyl-piperidine-1-carbonyl)-2,6-dimethyl-phenyl]-ethanesulfonyl}-2-(4-trifluoromethoxy-phenyl)-1,3,8-triaza-spiro[4.5]dec-1-en-4-one] | 114% |
| Cc1cc(C2=NC3(CCN(S(=O)(=O)CCc4c(C)cc(C(=O)N5CCC(C)(O)CC5)cc4C)CC3)C(=O)N2)ccc1C(F)(F)F [Compound 1235, 8-{2-[4-(4-hydroxy-4-methyl-piperidine-1-carbonyl)-2,6-dimethyl-phenyl]-ethanesulfonyl}-2-(3-methyl-4-trifluoromethyl-phenyl)-1,3,8-triaza-spiro[4.5]dec-1-en-4-one] | 98% |
| Cc1cc(C(=O)N2CCC(C)(O)CC2)cc(C)c1CCS(=O)(=O)N1CCC2(CC1)N=C(c1ccc(C(F)(F)F)c(Cl)c1)NC2=O [Compound 1236, 2-(3-chloro-4-trifluoromethyl-phenyl)-8-{2-[4-(4-hydroxy-4-methyl-piperidine-1-carbonyl)-2,6-dimethyl-phenyl]-ethanesulfonyl}-1,3,8-triaza-spiro[4.5]dec-1-en-4-one] | 99% |
| Cc1ccc(C2=NC3(CCN(S(=O)(=O)/C=C/c4c(C)cc(C(=O)N5CCC(C)(O)CC5)cc4C)CC3)C(=O)N2)cc1C [Compound 1237, 2-(3,4-dimethyl-phenyl)-8-{(E)-2-[4-(4-hydroxy-4-methyl-piperidine-1-carbonyl)-2,6-dimethyl-phenyl]-ethenesulfonyl}-1,3,8-triaza-spiro[4.5]dec-1-en-4-one] | 96% |
| COc1ccc(C2=NC3(CCN(S(=O)(=O)/C=C/c4c(C)cc(C(=O)N5CCC(C)(O)CC5)cc4C)CC3)C(=O)N2)cc1C [Compound 1238, 8-{(E)-2-[4-(4-hydroxy-4-methyl-piperidine-1-carbonyl)-2,6-dimethyl-phenyl]-ethenesulfonyl}-2-(4-methoxy-3-methyl-phenyl)-1,3,8-triaza-spiro[4.5]dec-1-en-4-one] | 73% |
| Cc1cc(C2=NC3(CCN(S(=O)(=O)/C=C/c4c(C)cc(C(=O)N5CCC(O)(CF)CC5)cc4C)CC3)C(=O)N2)c(C)cc1F [Compound 1239, 2-(4-Fluoro-2,5-dimethyl-phenyl)-8-{(E)-2-[4-(4-fluoromethyl-4-hydroxy-piperidine-1-carbonyl)-2,6-dimethyl-phenyl]-ethenesulfonyl}-1,3,8-triaza-spiro[4.5]dec-1-en-4-one] | 91% |
| Cc1cc(C(=O)N2CCC(O)(CF)CC2)cc(C)c1/C=C/S(=O)(=O)N1CCC2(CC1)N=C(c1ccc(F)c(C)c1C)NC2=O [Compound 1240, 2-(4-fluoro-2,3-dimethyl-phenyl)-8-{(E)-2-[4-(4-fluoromethyl-4-hydroxy-piperidine-1-carbonyl)-2,6-dimethyl-phenyl]-ethenesulfonyl}-1,3,8-triaza-spiro[4.5]dec-1-en-4-one] | 95% |
| Cc1cc(C(=O)N2CCC(O)(CF)CC2)cc(C)c1/C=C/S(=O)(=O)N1CCC2(CC1)N=C(c1ccc(OCCCC(F)(F)F)c(C(F)(F)F)c1)NC2=O [Compound 1250, 8-{(E)-2-[4-(4-fluoromethyl-4-hydroxy-piperidine-1-carbonyl)-2,6-dimethyl-phenyl]-ethenesulfonyl}-2-[4-(4,4,4-trifluoro-butoxy)-3-trifluoromethyl-phenyl]-1,3,8-triaza-spiro[4.5]dec-1-en-4-one] | 67% |

Results, then the molecule that gave them:

| cAMP production activity (%) | SMILES |
| --- | --- |
| 101% | Cc1cc(C(=O)N2CCC(O)(CF)CC2)cc(C)c1/C=C/S(=O)(=O)N1CCC2(CC1)N=C(c1ccc(C(F)(F)F)c(Cl)c1)NC2=O [Compound 1241, 2-(3-chloro-4-trifluoromethyl-phenyl)-8-{(E)-2-[4-(4-fluoromethyl-4-hydroxy-piperidine-1-carbonyl)-2,6-dimethyl-phenyl]-ethenesulfonyl}-1,3,8-triaza-spiro[4.5]dec-1-en-4-one] |
| 106% | Cc1cc(C(=O)N2CCC(O)(CF)CC2)cc(C)c1/C=C/S(=O)(=O)N1CCC2(CC1)N=C(c1ccc(F)c(Cl)c1)NC2=O [Compound 1242, 2-(3-chloro-4-fluoro-phenyl)-8-{(E)-2-[4-(4-fluoromethyl-4-hydroxy-piperidine-1-carbonyl)-2,6-dimethyl-phenyl]-ethenesulfonyl}-1,3,8-triaza-spiro[4.5]dec-1-en-4-one] |
| 77% | Cc1cc(C(=O)N2CCC(O)(CF)CC2)cc(C)c1/C=C/S(=O)(=O)N1CCC2(CC1)N=C(c1cccc(C(F)(F)C(F)(F)F)c1)NC2=O [Compound 1243, 8-{(E)-2-[4-(4-fluoromethyl-4-hydroxy-piperidine-1-carbonyl)-2,6-dimethyl-phenyl]-ethenesulfonyl}-2-(3-pentafluoroethyl-phenyl)-1,3,8-triaza-spiro[4.5]dec-1-en-4-one] |
| 96% | Cc1cc(C(=O)N2CCC(O)(CF)CC2)cc(C)c1/C=C/S(=O)(=O)N1CCC2(CC1)N=C(c1ccc(C(F)(F)C(F)(F)F)cc1)NC2=O [Compound 1244, 8-{(E)-2-[4-(4-fluoromethyl-4-hydroxy-piperidine-1-carbonyl)-2,6-dimethyl-phenyl]-ethenesulfonyl}-2-(4-pentafluoroethyl-phenyl)-1,3,8-triaza-spiro[4.5]dec-1-en-4-one] |
| 115% | Cc1cc(C(=O)N2CCC(O)(CF)CC2)cc(C)c1/C=C/S(=O)(=O)N1CCC2(CC1)N=C(c1ccc(S(F)(F)(F)(F)F)cc1)NC2=O [Compound 1245, 8-{(E)-2-[4-(4-fluoromethyl-4-hydroxy-piperidine-1-carbonyl)-2,6-dimethyl-phenyl]-ethenesulfonyl}-2-(4-pentafluorosulfanyl-phenyl)-1,3,8-triaza-spiro[4.5]dec-1-en-4-one] |
| 85% | Cc1cc(C(=O)N2CCC(O)(CF)CC2)cc(C)c1/C=C/S(=O)(=O)N1CCC2(CC1)N=C(c1ccc(OCC(F)(F)F)c(Cl)c1)NC2=O [Compound 1246, 2-[3-chloro-4-(2,2,2-trifluoro-ethoxy)-phenyl]-8-{(E)-2-[4-(4-fluoromethyl-4-hydroxy-piperidine-1-carbonyl)-2,6-dimethyl-phenyl]-ethenesulfonyl}-1,3,8-triaza-spiro[4.5]dec-1-en-4-one] |
| 70% | Cc1cc(C(=O)N2CCC(O)(CF)CC2)cc(C)c1/C=C/S(=O)(=O)N1CCC2(CC1)N=C(c1ccc(OCC(F)(F)C(F)F)c(Cl)c1)NC2=O [Compound 1247, 2-[3-chloro-4-(2,2,3,3-tetrafluoro-propoxy)-phenyl]-8-{(E)-2-[4-(4-fluoromethyl-4-hydroxy-piperidine-1-carbonyl)-2,6-dimethyl-phenyl]-ethenesulfonyl}-1,3,8-triaza-spiro[4.5]dec-1-en-4-one] |
| 81% | Cc1cc(C(=O)N2CCC(O)(CF)CC2)cc(C)c1/C=C/S(=O)(=O)N1CCC2(CC1)N=C(c1ccc(OCC(F)(F)F)c(C(F)(F)F)c1)NC2=O [Compound 1248, 8-{(E)-2-[4-(4-fluoromethyl-4-hydroxy-piperidine-1-carbonyl)-2,6-dimethyl-phenyl]-ethenesulfonyl}-2-[4-(2,2,2-trifluoro-ethoxy)-3-trifluoromethyl-phenyl]-1,3,8-triaza-spiro[4.5]dec-1-en-4-one] |
| 62% | Cc1cc(C(=O)N2CCC(O)(CF)CC2)cc(C)c1/C=C/S(=O)(=O)N1CCC2(CC1)N=C(c1ccc(OCC(F)(F)C(F)(F)F)c(C(F)(F)F)c1)NC2=O [Compound 1249, 8-{(E)-2-[4-(4-fluoromethyl-4-hydroxy-piperidine-1-carbonyl)-2,6-dimethyl-phenyl]-ethenesulfonyl}-2-[4-(2,2,3,3,3-pentafluoro-propoxy)-3-trifluoromethyl-phenyl]-1,3,8-triaza-spiro[4.5]dec-1-en-4-one] |
| 56% | Cc1cc(C(=O)N2CCC(O)(CF)CC2)cc(C)c1/C=C/S(=O)(=O)N1CCC2(CC1)N=C(c1ccc(OCC(F)(F)C(F)F)c(C(F)(F)F)c1)NC2=O [Compound 1251, 8-{(E)-2-[4-(4-fluoromethyl-4-hydroxy-piperidine-1-carbonyl)-2,6-dimethyl-phenyl]-ethenesulfonyl}-2-[4-(2,2,3,3-tetrafluoro-propoxy)-3-trifluoromethyl-phenyl]-1,3,8-triaza-spiro[4.5]dec-1-en-4-one] |

From patent US9169254B2, “Spiroimidazolone derivative” (Chugai Seiyaku Kabushiki Kaisha, priority 2009, dated 2015)
